One molecule from ChEMBL document CHEMBL3832066, “DailyMed|setid=891194e8-7083-4438-8d27-c72f2372e40f | ISOSORBIDE MONONITRATE - isosorbide mononitrate tablet, extended release|Mckesson Contract Packaging” can be followed below.

Structures are written as SMILES. Values joined by “and” are separate entries in the source; they are usually repeats but may differ in a detail not shown here. Equal values may be shown once.

Holding throughout (format): ADME, organism-based
Data set [1] deals with Homo sapiens. Put plainly: (§1) Pharmacokinetic parameters for Isosorbide mononitrate after multiple oral dose administrations of 60 and 120 mg Isosorbide mononitrate tablets to subjects. The conditions noted are these: in vivo, po, dosed compound id 10, dosed compound name ISOSORBIDE MONONITRATE, regimen Multiple dose, tissue Plasma. On the set-up: dose 120 mg, dose 60 mg, route oral.

Data set [2] can be described thus: as §1. On the set-up: dose 120 mg, dose 60 mg, route oral. Particulars: human, in vivo; dose 60 mg, dosed compound id 10, dosed compound name ISOSORBIDE MONONITRATE, regimen Multiple dose, route oral, tissue Plasma.
For data set [3], the system named is Homo sapiens. Put plainly: (§2) Pharmacokinetic parameters for Isosorbide mononitrate after single oral dose administration of 60 mg Isosorbide mononitrate solution or table to subjects. On the set-up: dose 60 mg, route oral. Particulars: in vivo, po, dosed compound id 10, dosed compound name ISOSORBIDE MONONITRATE, regimen Single dose, tissue Plasma.
The nature of data set [4]: as §2. Details: dose 60 mg, route oral. The conditions noted are these: human, in vivo, dosed compound id 10, dosed compound name ISOSORBIDE MONONITRATE, regimen Single dose, tissue Plasma.

Consider `O=[N+]([O-])O[C@@H]1CO[C@H]2[C@@H]1OC[C@@H]2O` [ISOSORBIDE MONONITRATE], for which the CL/F in data set [1] (dose 120 mg) was 119 to 140 mL/min; in data set [2], 132 to 151 mL/min; in data set [3] (dose 60 mg) it was 120 to 122 mL/min; in data set [4] (dose 60 mg, route oral), 151 to 187 mL/min. Besides, the figures for the Tmax in data set [1] (dose 120 mg) and in data set [2] were 3.1 to 3.2 h and 2.9 to 4.2 h, respectively. The exposure (AUC) in data set [1] is 6.62 to 7.55 µg·h/mL and 14.2 to 16.8 µg·h/mL; in data set [3], 8.19 to 8.31 µg·h/mL; in data set [4] (po, 60 mg), 5.99 to 7.45 µg·h/mL. The Cmax in data set [1] is 0.557 to 0.572 µg/mL and 1.15 to 1.18 µg/mL; in data set [3], 0.424 to 0.541 µg/mL and 1.24 to 1.53 µg/mL. For the same molecule, the half-life lay within 6.2 to 6.3 h in data set [2] and 6.3 to 6.6 h in data set [4] (dose 60 mg, route oral). In data set [3] (dose 60 mg), this molecule displayed a t1/2 of 4.8 to 5.1 h.
